The source of these data is patent US20210380683A1, “MODULATION OF IRF-4 AND USES THEREOF” (THE METHODIST HOSPITAL SYSTEM, priority 2018, published 2021).

Molecules are shown by their SMILES.

In this assay the test system is Balb/c heart allograft in WT B6 mice. The experiment in a line: Balb/c heart allograft survival in WT B6 recipients. The following applies: 3 mg/kg every other day from day 0 to day 12; WT B6 recipients of Balb/c hearts. The format is in vivo, mouse. The protocol:
Murine heterotopic heart transplantation. Heart transplantation in mice was performed by a previously described method (Miyahara et al., 2012; Chen et al., 2007). In brief, hearts from Balb/c donors were transplanted into 8 to 10-week-old male WT B6, Irf4^fl/flCd4-Cre, CD45.1+ congenic, or Rag1−/− recipient mice. Pulmonary artery and aorta of donor heart were cut open, remaining heart vessels were tied off, and heart was removed. […] Anastomosis was made by 11-0 sutures running continuously. 6-0 silk thread was removed, and abdomen was then closed by 5-0 sutures in two layers. Heart graft survival was monitored daily by palpation, and the day of complete cessation of heartbeat was considered as the day of rejection. Recipient mice were i.p. injected with Rat IgG, anti-PD-L1 (10F.9G2), anti-CTLA-4 (9D9), anti-CD4 (GK1.5), anti-CD8 (53-6.7), or anti-CD25 (PC-61.5.3) mAbs obtained from Bio-X-Cell (West Lebanon, N.H.), oral gavaged with trametinib (Selleck Chemicals, Houston, Tex.) or corn oil, or i.v. transferred with WT B6, Irf4^−/−, TEa, TEa Irf4^−/−, or IRF4 re-introduced Irf4^−/− T cells. At various days post-transplant, splenocytes and graft infiltrating cells were obtained for flow cytometry analysis, and allografts were sectioned and stained with hematoxylin and eosin for microscopic evaluation.

As to `CC(=O)Nc1cccc(-n2c(=O)n(C3CC3)c(=O)c3c(Nc4ccc(I)cc4F)n(C)c(=O)c(C)c32)c1` [trametinib], the “heart allograft survival (MST)” value was determined as 13.17±0.75 days.
